Results as given in patent US7025991B2, “Drug targeting system, method of its preparation and its use” (NanoDel Technologies GmbH, priority 1997, dated 2006).

Tested on: mice
Assay: hot plate test (analgesic effect) after intravenous or oral application
Format: in vivo
Conditions: intravenous injection, dalargin dose 10.0 mg/kg
Excerpt: Dalargin was given either in solution, or after sorptive binding to nanoparticles. The groups (n=10) are as follows:
Dalargin was given either in solution, or after sorptive binding to nanoparticles. The data were collected at different time points following oral application.
Dalargin was given either in solution, or after sorptive binding to nanoparticles that were stabilized with Dextran 12.000.
Dalargin was adsorbed to poly(butyl cyanoacrylate) nanoparticles which were stabilized with polysorbate 85.
After this time, the preparation was injected intravenously into mice at a dalargin dose of 10.0 mg/kg. Various preparations include pure dalargin solution and empty nanoparticles served as controls.
Activity threshold was measured with the hot plate test.
2. […] The analgesia was determined 30, 45, 60, 90, 120 and 150 min after p.o. application.
4. To test the question whether other stabilizers may be used to achieve the desired effect, nanoparticles were investigated in which the stabilizer was the low molecular size dextran 12,000. The dextran 12,000 stabilized nanoparticles of Example 2 were loaded with dalargin, and the analgesic effect was determined in the hot plate test after intravenous injection into mice.

Substance: dalargin
- analgesic effect, hot plate test: did not exhibit any analgesic effect
- analgesic effect, hot plate test (listed as dalargin alone): None of the control groups (empty nanoparticles and dalargin alone) exhibited any analgesic effects
